Reference: patent publication US20240090498A1, “ANTIMICROBIAL COMPOSITIONS” (TAKASAGO INTERNATIONAL CORPORATION, priority 2010, published 2024)
One block for each molecule: values may come before it.

Columns and labels:
Type in all cases: cell-based
[1] = test system: Escherichia coli ATCC 10536; experiment: Vapor phase activity against bacteria (Example 2, growth grading versus control); set-up: key: −: No Activity (growth); +: Slight Activity (some growth, but much less than control); ++: Medium Activity (pinprick growth); +++: High Activity (no growth); conditions: E.c. 10536; 7.1 or 9.3 mg/L as defined per composition; sealed 7 L box
Experimental: (§1) Seeded brain heart infusion (BHI) agar plates of Escherichia coli ATCC 10536, Salmonella enterica ATCC13311, Pseudomonas aeruginosa ATCC 15422, Staphylococcus aureus ATCC 6538, Enterococcus faecalis ATCC 29212, and Enterococcus hirae ATCC 10541 were placed in sealed 7 L acrylic boxes and exposed to vapors of the compositions shown below. A control was established in which the agar plates was not treated with vapors. • Composition A: 9.3 mg/L of trans-2-hexenal • Composition B: 9.3 mg/L of trans-2-heptenal • Composition C: 9.3 mg/L of 2, 4-heptadienal • Composition D: 7.1 mg/L of trans-2-hexenal • Composition E: 7.1 mg/L of 2,4-heptadienal • Composition F: 7.1 mg/L of 2,4-heptadienal+citronellol (1:1) • Composition G: 9.3 mg/L of citronellal+citral DMA (1:1) • Composition H: 9.3 mg/L of benzaldehyde+citral DMA (1:1) • Composition I: 9.3 mg/L of furfural+citronellol (1:1) • Composition J: 7.1 mg/L of citral+citronellal (1:1) • Composition K: 7.1 mg/L of trans-2-hexenal+citronellol (1:1)

[2] = test system: Staphylococcus aureus ATCC 6538; experiment: as above; set-up: key to the marks not given beside the values; conditions: S.a. 6538; 7.1 or 9.3 mg/L as defined per composition; sealed 7 L box
Experimental: as §1

[3] = test system: Salmonella enterica ATCC13311; experiment: as above; set-up: key to the marks not given beside the values; conditions: S.e. 13311; 7.1 or 9.3 mg/L as defined per composition; sealed 7 L box
Experimental: as §1

[4] = test system: Enterococcus faecalis ATCC 29212; experiment: as above; set-up: key to the marks not given beside the values; conditions: E.f. 29212; 7.1 or 9.3 mg/L as defined per composition; sealed 7 L box
Experimental: as §1

[5] = test system: Pseudomonas aeruginosa ATCC 15422; experiment: as above; conditions: P.a. 15442; 7.1 or 9.3 mg/L as defined per composition; sealed 7 L box
Experimental: as §1

[6] = test system: Enterococcus hirae ATCC 10541; experiment: as above; conditions: E.h 10541; 7.1 or 9.3 mg/L as defined per composition; sealed 7 L box
Experimental: as §1

[7] = test system: Escherichia coli ATCC 10536; experiment: Vapor phase MIC / combined FIC on seeded BHI agar plates in sealed 7 L box; conditions: ATCC10536, 72 h, E. coli, no growth after 3 days at room temperature, read-out: MIC alone (single material, vapor phase)
Excerpt: (§2) Seeded brain heart infusion (BHI) agar plates of Escherichia coli ATCC 10536, Salmonella enterica ATCC13311, Pseudomonas aeruginosa ATCC 15422, Staphylococcus aureus ATCC 6538, Enterococcus faecalis ATCC 29212, and Enterococcus hirae ATCC 10541 were placed in sealed 7 L acrylic boxes and exposed to vapors of trans-2-alkenals (C6 to C11 carbon chain length) and mustard essential oil (MEO) binary combinations.
(§3) The trans-2-alkenals and MEO were weighed neat into a glass jar which was positioned in the box between the seeded agar plates. The concentration of the single materials and binary combinations introduce in the 7 L box were expressed as weight per unit volume of the box (mg/L). Several concentrations ranging from 0.5 mg/L to 43 mg/L of the single materials and combinations were tested for each organism. The vapor phase minimum inhibition concentration (MIC) with “no growth” after 3 days of incubation at room temperature. Fractional Inhibition Concentrations (FIC) was determined to evaluate the antibacterial effect of trans-2-alkenals and MEO combinations in the vapor phase based on the following formula:
(§4) Combined FIC=(MIC of trans-2-alkenalcombination/MIC of trans-2-alkenalalone)+(MIC of MEOcombination/MIC of MEOalone)
(§5) Combined FIC values for trans-2-alkenals and MEO combinations are shown below in Table 1. Combinations with combined FIC equal or less than 0.5 are considered to have a strong synergistic effect.

[8] = test system: Staphylococcus aureus ATCC 6538; experiment: as above; conditions: ATCC6538, 72 h, S. aureus, no growth after 3 days at room temperature, read-out: MIC alone (single material, vapor phase)
Excerpt: as §2, §3, §4, §5

[9] = test system: Salmonella enterica ATCC13311; experiment: as above; conditions: ATCC13311, 72 h, S. enterica, no growth after 3 days at room temperature, read-out: MIC alone (single material, vapor phase)
Excerpt: as §2, §3, §4, §5

[10] = test system: Pseudomonas aeruginosa ATCC 15422; experiment: as above; conditions: ATCC15422, 72 h, P. aeruginosa, no growth after 3 days at room temperature, read-out: MIC alone (single material, vapor phase)
Excerpt: as §2, §3, §4, §5

[11] = test system: Enterococcus faecalis ATCC 29212; experiment: as above; conditions: ATCC29212, 72 h, E. faecalis, no growth after 3 days at room temperature, read-out: MIC alone (single material, vapor phase)
Excerpt: as §2, §3, §4, §5

[12] = test system: Enterococcus hirae ATCC 10541; experiment: as above; conditions: ATCC10541, 72 h, E. hirae, no growth after 3 days at room temperature, read-out: MIC alone (single material, vapor phase)
Excerpt: as §2, §3, §4, §5

[13] = test system: E.f. 29212; experiment: MIC in solution; conditions: Enterococcus faecalis
Experimental: (§6) MIC values were also determined for trans-2 octenal, octanal formulations, and MEO in solution and in the vapor phase.

[14] = test system: S.a. 6538; experiment: MIC in solution; conditions: Staphylococcus aureus
Experimental: as §6

[15] = test system: P.a. 15442; experiment: MIC in solution; conditions: Pseudomonas aeruginosa
Experimental: as §6

[16] = test system: E.h. 10541; experiment: MIC in solution; conditions: Enterococcus hirae
Experimental: as §6

[17] = test system: S.e. 13311; experiment: MIC in solution; conditions: Salmonella enterica
Experimental: as §6

[18] = test system: E.c. 10536; experiment: MIC in solution; conditions: Escherichia coli
Experimental: as §6

Compound: CCC/C=C/C=O [Composition A, trans-2-hexenal]
Vapor Phase Activity Against Bacteria [1]: +++ | Vapor Phase Activity Against Bacteria [2]: +++ | Vapor Phase Activity Against Bacteria [3]: +++ | Vapor Phase Activity Against Bacteria [4]: +++ | Vapor Phase Activity Against Bacteria [5]: +++ | Vapor Phase Activity Against Bacteria [6]: +

Compound: CCCC/C=C/C=O [Composition B, trans-2-heptenal]
Vapor Phase Activity Against Bacteria [1]: +++ | Vapor Phase Activity Against Bacteria [2]: +++ | Vapor Phase Activity Against Bacteria [3]: +++ | Vapor Phase Activity Against Bacteria [4]: +++ | Vapor Phase Activity Against Bacteria [5]: + | Vapor Phase Activity Against Bacteria [6]: +++

Compound: CC/C=C/C=C/C=O [Composition C, 2,4-heptadienal]
Vapor Phase Activity Against Bacteria [1]: +++ | Vapor Phase Activity Against Bacteria [2]: +++ | Vapor Phase Activity Against Bacteria [3]: +++ | Vapor Phase Activity Against Bacteria [4]: +++ | Vapor Phase Activity Against Bacteria [5]: +++ | Vapor Phase Activity Against Bacteria [6]: +

Compound: CC/C=C/C=C/C=O [Composition E, 2,4-heptadienal]
Vapor Phase Activity Against Bacteria [1]: +++ | Vapor Phase Activity Against Bacteria [2]: +++ | Vapor Phase Activity Against Bacteria [3]: +++ | Vapor Phase Activity Against Bacteria [4]: ++ | Vapor Phase Activity Against Bacteria [5]: ++ | Vapor Phase Activity Against Bacteria [6]: +

MIC [13]: > 125 µg/mL | MIC [14]: > 125 µg/mL | MIC [15]: > 125 µg/mL | MIC [16]: > 125 µg/mL | MIC [17]: > 125 µg/mL | MIC [18]: > 125 µg/mL
Compound: CCCCCCCC=O [octanal]
MIC [7]: 21.1 µg/mL | MIC [8]: 7.8 µg/mL | MIC [9]: 42.4 µg/mL | MIC [10]: 84.8 µg/mL | MIC [11]: 42.4 µg/mL | MIC [12]: 42.4 µg/mL

Compound: CCCCCCC/C=C/C=O [trans-2-decenal]
MIC [10]: 43 µg/mL | MIC [11]: 6.4 µg/mL | MIC [12]: 6.4 µg/mL

Compound: CCCC/C=C/C=O [trans-2-heptenal]
MIC [10]: 25.6 µg/mL | MIC [11]: 6.4 µg/mL | MIC [12]: 12.8 µg/mL

Compound: CCC/C=C/C=O [trans-2-hexenal]
MIC [10]: 12.8 µg/mL | MIC [11]: 6.4 µg/mL | MIC [12]: 12.8 µg/mL

Compound: CCCCCC/C=C/C=O [trans-2-nonenal]
MIC [10]: 43 µg/mL | MIC [11]: 6.4 µg/mL | MIC [12]: 6.4 µg/mL

MIC [13]: > 125 µg/mL | MIC [14]: > 125 µg/mL | MIC [15]: > 125 µg/mL | MIC [16]: > 125 µg/mL | MIC [17]: > 125 µg/mL | MIC [18]: > 125 µg/mL
Compound: CCCCC/C=C/C=O [trans-2-octenal]
MIC [7]: 43 µg/mL | MIC [8]: 3.6 µg/mL | MIC [9]: 43 µg/mL | MIC [10]: 43 µg/mL | MIC [11]: 43 µg/mL | MIC [12]: 25.6 µg/mL

Compound: CCCCCCCC/C=C/C=O [trans-2-undecenal]
MIC [10]: 43 µg/mL | MIC [11]: 12.8 µg/mL | MIC [12]: 12.8 µg/mL
